According to patent US9156827B2, “Anticancer agent” (THE UNIVERSITY OF TOKYO, priority 2010, dated 2015):
Structures can show the parent of a compound that is named as a salt.

Columns and labels:
pim-1 kinase = pim-1 kinase (Homo sapiens, UniProt P11309); experiment: Measurement of pim-1 kinase inhibitory activity (fluorescent substrate peptide, capillary electrophoresis); format: biochemical; conditions: 0.1 μM of each compound, 30 μM ATP, 1.5 μM substrate peptide, room temperature 2 hours
Description: Measurement of Pim-1 Kinase Inhibitory Activity
The result of the reaction was determined by quantifying the substrate and the phosphorylated reaction product separated by capillary electrophoresis based on difference in charges of the substances (EZ Reader II, Caliper Life Sciences, was used).

[1] = test system: Human acute myeloid leukemia MV4-11 cells; experiment: Cell proliferation-suppressing activity, chromogenic method (MTT assay); format: cell-based; conditions: 72 h, compound 1 μM, MTT assay three days after addition
Description: (§1) Measurement of Cell Proliferation-Suppressing Activity (Chromogenic Method)
Human acute myeloid leukemia MV4-11 cells (10^4 cells) were inoculated on a 96-well microtiter plate, each compound was added at a final concentration of 1 μM 24 hours afterward, and MTT assay was performed three days after the addition of the compound to measure the cell proliferation-suppressing activity.

[2] = test system: Human acute myeloid leukemia MV4-11 cells; experiment: Cell proliferation-suppressing activity, chromogenic method (Cell Counting Kit-8); format: cell-based; conditions: compound 1 μM, 48 hours, Cell Counting Kit-8, absorbance 450 nm
Description: as §1
Human acute myeloid leukemia MV4-11 cells (2×10^4 cells) are inoculated on a 96-well microtiter plate. Each compound is added at a final concentration of 1 μM on the next day, and the cells are cultured for additional 48 hours. Absorbance is measured at 450 nm by using Cell Counting Kit-8 (Nacalai Tesque) to calculate the cell proliferation-suppressing activity.

pim-1 kinase, sequence (P11309 whole entry): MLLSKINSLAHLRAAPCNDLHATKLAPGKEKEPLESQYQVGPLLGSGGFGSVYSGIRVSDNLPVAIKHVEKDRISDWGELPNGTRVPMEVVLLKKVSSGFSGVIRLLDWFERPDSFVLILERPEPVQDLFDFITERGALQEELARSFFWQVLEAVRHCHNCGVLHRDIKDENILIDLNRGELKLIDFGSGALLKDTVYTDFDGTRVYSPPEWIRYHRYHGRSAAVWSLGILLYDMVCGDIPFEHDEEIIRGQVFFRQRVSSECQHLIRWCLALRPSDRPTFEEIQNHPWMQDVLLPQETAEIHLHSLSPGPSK

| inhibition at 0.1 µM (pim-1 kinase; Table 2) [%] | Structure (SMILES) | inhibition at 1 µM ([1]; Table 4) [%] | further results |
| --- | --- | --- | --- |
| 79 | C[C@H]1CNCCN1Cc1c(O)ccc2c1O/C(=C\c1n[nH]c3ccccc13)C2=O [Compound B3, (Z)-2-[(1H-Indazol-3-yl)methylene]-6-hydroxy-7-{[2-(S)-methylpiperazin-1-yl]methyl}benzofuran-3(2H)-one] | 79 |  |
| 100 | COc1ccc2c(c1CN1CCNCC1)O/C(=C\c1n[nH]c3ccccc13)C2=O [Compound B17, (Z)-2-[(1H-Indazol-3-yl)methylene]-6-methoxy-7-(piperazin-1-ylmethyl)benzofuran-3(2H)-one] | 93 |  |
| 97 | COc1ccc2c(c1OC1CCNCC1)O/C(=C\c1n[nH]c3ccccc13)C2=O [Compound B35, (Z)-2-[(1H-Indazol-3-yl)methylene]-6-methoxy-7-(piperidin-4-yloxy)benzofuran-3(2H)-one] | 95 |  |
| 93 | CCCOc1ccc2c(c1CN1CCNCC1)O/C(=C\c1n[nH]c3ccccc13)C2=O [Compound B23, (Z)-2-[(1H-Indazol-3-yl)methylene]-7-(piperazin-1-ylmethyl)-6-propoxybenzofuran-3(2H)-one] | 90 |  |
| 97 | COCCOc1ccc2c(c1CN1CCNCC1)O/C(=C\c1n[nH]c3ccccc13)C2=O [Compound B21, (Z)-2-[(1H-Indazol-3-yl)methylene]-6-(2-methoxyethoxy)-7-(piperazin-1-ylmethyl)benzofuran-3(2H)-one] | 94 |  |
| 91 | O=C1/C(=C/c2n[nH]c3ccccc23)Oc2c1ccc(OCC1CC1)c2CN1CCNCC1 [Compound B27, (Z)-2-[(1H-Indazol-3-yl)methylene]-6-(cyclopropylmethoxy)-7-(piperazin-1-ylmethyl)benzofuran-3(2H)-one] | 89 |  |
| 96 | CCOc1ccc2c(c1CN1CCNCC1)O/C(=C\c1n[nH]c3ccccc13)C2=O [Compound B22, (Z)-2-[(1H-Indazol-3-yl)methylene]-6-ethoxy-7-(piperazin-1-ylmethyl)benzofuran-3(2H)-one] | 90 |  |
| 87 | COc1cc2c(c(CN3CCNCC3)c1OC)O/C(=C\c1n[nH]c3ccccc13)C2=O [Compound B38, (Z)-2-[(1H-Indazol-3-yl)methylene]-5,6-dimethoxy-7-(piperazin-1-ylmethyl)benzofuran-3(2H)-one] | 95 |  |
| 95 | O=C1/C(=C/c2n[nH]c3ccccc23)Oc2c1cc1c(c2CN2CCNCC2)OCO1 [Compound B39] | 92 |  |
| 85 | COc1ccc2c(c1C(=O)N1CCNCC1)O/C(=C\c1n[nH]c3ccccc13)C2=O [Compound B37, (Z)-2-[(1H-Indazol-3-yl)methylene]-6-methoxy-7-(piperazine-1-carbonyl)benzofuran-3(2H)-one] | 76 |  |
| 89 | COc1c(F)cc2c(c1CCC1CCNCC1)O/C(=C\c1n[nH]c3ccccc13)C2=O [Compound B66, (Z)-2-[(1H-Indazol-3-yl)methylene]-5-fluoro-6-methoxy-7-[2-(piperidin-4-yl)ethyl]benzofuran-3(2H)-one] |  | inhibition at 1 µM ([2]; Table 7): 88% |
| 86 | COc1ccc2c(c1CCCCN1CCNCC1)O/C(=C\c1n[nH]c3ccccc13)C2=O [Compound B51, (Z)-2-[(1H-Indazol-3-yl)methylene]-6-methoxy-7-[4-(piperazin-1-yl)butyl]benzofuran-3(2H)-one] |  | inhibition at 1 µM ([2]; Table 7): 94% |
| 95 | COc1ccc2c(c1CCCC1CCNCC1)O/C(=C\c1n[nH]c3ccccc13)C2=O [Compound B60, (Z)-2-[(1H-Indazol-3-yl)methylene]-6-methoxy-7-[3-(piperidin-4-yl)propyl]benzofuran-3(2H)-one] |  | inhibition at 1 µM ([2]; Table 7): 98% |
| 81 | COc1ccc2c(c1/C=C/C1CCNCC1)O/C(=C\c1n[nH]c3ccccc13)C2=O [Compound B64, (Z)-2-[(1H-Indazol-3-yl)methylene]-6-methoxy-7-[(E)-2-(piperidin-4-yl)vinyl]benzofuran-3(2H)-one] |  | inhibition at 1 µM ([2]; Table 7): 93% |

The remaining lines, values behind:

| Structure (SMILES) | inhibition at 0.1 µM (pim-1 kinase; Table 2) [%] | inhibition at 1 µM ([1]; Table 4) [%] | further results |
| --- | --- | --- | --- |
| CC(C)Oc1ccc2c(c1CN1CCNCC1)O/C(=C\c1n[nH]c3ccccc13)C2=O [Compound B25, (Z)-2-[(1H-Indazol-3-yl)methylene]-6-isopropoxy-7-(piperazin-1-ylmethyl)benzofuran-3(2H)-one] | 97 | 91 |  |
| O=C1/C(=C/c2n[nH]c3ccccc23)Oc2c1ccc(OCCOc1ccccc1)c2CN1CCNCC1 [Compound B31, (Z)-2-((1H-Indazol-3-yl)methylene)-6-(2-phenoxyethoxy)-7-(piperazin-1-ylmethyl)benzofuran-3(2H)-one] | 95 | 84 |  |
| CC(C)COc1ccc2c(c1CN1CCNCC1)O/C(=C\c1n[nH]c3ccccc13)C2=O [Compound B26, (Z)-2-[(1H-Indazol-3-yl)methylene]-6-isobutoxy-7-(piperazin-1-ylmethyl)benzofuran-3(2H)-one] | 78 | 86 |  |
| O=C1/C(=C/c2c[nH]c3ccc(Br)cc23)Oc2c1ccc(O)c2CN1CCNCC1 [Compound A22, (Z)-2-[(5-Bromo-1H-indol-3-yl)methylene]-6-hydroxy-7-(piperazin-1-ylmethyl)benzofuran-3(2H)-one dihydrochloride] |  |  | inhibition at 0.1 µM (pim-1 kinase; Table 1): 94%; inhibition at 1 µM ([1]; Table 3): 70% |
| CC(c1c(O)ccc2c1O/C(=C\c1n[nH]c3ccccc13)C2=O)N1CCNCC1 (stereo not shown) [Compound B7, (Z)-2-[(1H-Indazol-3-yl)methylene]-6-hydroxy-7-[1-(piperazin-1-yl)ethyl]benzofuran-3(2H)-one] | 86 | 88 |  |
| O=C1/C(=C/c2n[nH]c3ccccc23)Oc2c1ccc(OCCc1ccccc1)c2CN1CCNCC1 [Compound B30, (Z)-2-[(1H-Indazol-3-yl)methylene]-6-phenethoxy-7-(piperazin-1-ylmethyl)benzofuran-3(2H)-one] | 89 | 78 |  |
| O=C1/C(=C/c2n[nH]c3ccccc23)Oc2c1ccc(OC1CCOCC1)c2CN1CCNCC1 [Compound B29, (Z)-2-[(1H-Indazol-3-yl)methylene]-7-(piperazin-1-ylmethyl)-6-(tetrahydro-2H-pyran-4-yloxy)benzofuran-3(2H)-one] | 82 | 90 |  |
| CN(C)C1CCN(Cc2c(O)ccc3c2O/C(=C\c2c[nH]c4ccccc24)C3=O)C1 (stereo not shown) [Compound A3, (Z)-2-[(1H-Indol-3-yl)methylene]-7-{[3-(dimethylamino)pyrrolidin-1-yl]methyl}-6-hydroxybenzofuran-3(2H)-one] |  |  | inhibition at 0.1 µM (pim-1 kinase; Table 1): 47%; inhibition at 1 µM ([1]; Table 3): 41% |
| O=C1/C(=C/c2c[nH]c3ccccc23)Oc2c1ccc(O)c2CN1CCNCC1 [Compound A11, (Z)-2-[(1H-Indol-3-yl)methylene]-6-hydroxy-7-(piperazin-1-ylmethyl)benzofuran-3(2H)-one] |  |  | inhibition at 0.1 µM (pim-1 kinase; Table 1): 87%; inhibition at 1 µM ([1]; Table 3): 82% |
| O=C1CN(Cc2c(O)ccc3c2O/C(=C\c2c[nH]c4ccccc24)C3=O)CCN1 [Compound A7, (Z)-4-({2-[(1H-Indol-3-yl)methylene]-6-hydroxy-3-oxo-2,3-dihydrobenzofuran-7-yl}methyl)piperazin-2-one] |  |  | inhibition at 0.1 µM (pim-1 kinase; Table 1): 81%; inhibition at 1 µM ([1]; Table 3): 22% |
| CCCCOc1ccc2c(c1CN1CCNCC1)O/C(=C\c1n[nH]c3ccccc13)C2=O [Compound B24, (Z)-2-[(1H-Indazol-3-yl)methylene]-6-butoxy-7-(piperazin-1-ylmethyl)benzofuran-3(2H)-one] | 88 | 89 |  |
| COc1ccc2c(c1C#CCN1CCNCC1)O/C(=C\c1n[nH]c3ccccc13)C2=O [Compound B46, (Z)-2-[(1H-Indazol-3-yl)methylene]-6-methoxy-7-[3-(piperazin-1-yl)prop-1-ynyl]benzofuran-3(2H)-one] | 86 |  | inhibition at 1 µM ([2]; Table 7): 97% |
| O=C1/C(=C/c2c[nH]c3ccc([N+](=O)[O-])cc23)Oc2c1ccc(O)c2CN1CCNCC1 [Compound A17, (Z)-6-Hydroxy-2-[(5-nitro-1H-indol-3-yl)methylene]-7-(piperazin-1-ylmethyl)benzofuran-3(2H)-one dihydrochloride] |  |  | inhibition at 0.1 µM (pim-1 kinase; Table 1): 82%; inhibition at 1 µM ([1]; Table 3): 73% |
| COc1ccc2c(c1CN1CCNCC1)O/C(=C\c1n[nH]c3ccc(Cl)cc13)C2=O [Compound B18, (Z)-2-[(5-Chloro-1H-indazol-3-yl)methylene]-6-methoxy-7-(piperazin-1-ylmethyl)benzofuran-3(2H)-one] | 95 | 87 |  |
| CCCOc1ccc2c(c1CN1CCNCC1)O/C(=C\c1c[nH]c3ccccc13)C2=O [Compound A60, (Z)-2-((1H-Indol-3-yl)methylene)-7-(piperazin-1-ylmethyl)-6-propoxybenzofuran-3(2H)-one] |  |  | inhibition at 0.1 µM (pim-1 kinase; Table 1): 84%; inhibition at 1 µM ([2]; Table 6): 91% |
